In patent US5250683A, “Certain substituted taxanes and pharmaceutical compositions containing them” (Florida State University, priority 1992, dated 1993):

tested on: tubulin; experiment: Tubulin binding assay (Tubulin Assay), method of Parness et al.; details: compared to taxol and taxotere

Compound | Tubulin Assay Init. Peak | Tubulin Assay Rel. Rate
CC(=O)O[C@H]1C(=O)[C@@]2(C)[C@H]([C@H](OC(=O)c3ccccc3)[C@]3(O)C[C@H](OC(=O)[C@H](O)[C@@H](NC(=O)c4ccccc4)c4cccc5ccccc45)C(C)=C1C3(C)C)[C@]1(OC(C)=O)CO[C@@H]1C[C@@H]2O [Example 1, 3'-desphenyl-3'-(1-naphthyl) taxol] | 0 | 0
CC(=O)O[C@H]1C(=O)[C@@]2(C)[C@H]([C@H](OC(=O)c3ccccc3)[C@]3(O)C[C@H](OC(=O)[C@H](O)[C@@H](NC(=O)c4ccccc4)c4ccc5ccccc5c4)C(C)=C1C3(C)C)[C@]1(OC(C)=O)CO[C@@H]1C[C@@H]2O [Example 2, 3'-desphenyl-3'-(2-naphthyl) taxol] | 0 | 0
COc1ccc([C@H](NC(=O)c2ccccc2)[C@@H](O)C(=O)O[C@H]2C[C@@]3(O)[C@@H](OC(=O)c4ccccc4)[C@@H]4[C@]5(OC(C)=O)CO[C@@H]5C[C@H](O)[C@@]4(C)C(=O)[C@H](OC(C)=O)C(=C2C)C3(C)C)cc1 [Example 3, 3'-desphenyl-3'-(4-methoxyphenyl) taxol] | 59 | 87
CC(=O)O[C@H]1C(=O)[C@@]2(C)[C@H]([C@H](OC(=O)c3ccccc3)[C@]3(O)C[C@H](OC(=O)[C@H](O)[C@@H](NC(=O)c4ccccc4)c4ccc(Cl)cc4)C(C)=C1C3(C)C)[C@]1(OC(C)=O)CO[C@@H]1C[C@@H]2O [Example 4, 3'-desphenyl-3'-(4-chlorophenyl) taxol] | 94 | 97
CC(=O)O[C@H]1C(=O)[C@@]2(C)[C@H]([C@H](OC(=O)c3ccccc3)[C@]3(O)C[C@H](OC(=O)[C@H](O)[C@@H](NC(=O)c4ccccc4)c4ccc(Br)cc4)C(C)=C1C3(C)C)[C@]1(OC(C)=O)CO[C@@H]1C[C@@H]2O [Example 5, 3'-desphenyl-3'-(4-bromophenyl) taxol] | 5 | 74
CC(=O)O[C@H]1C(=O)[C@@]2(C)[C@H]([C@H](OC(=O)c3ccccc3)[C@]3(O)C[C@H](OC(=O)[C@H](O)[C@@H](NC(=O)c4ccccc4)c4ccc5c(c4)OCO5)C(C)=C1C3(C)C)[C@]1(OC(C)=O)CO[C@@H]1C[C@@H]2O [Example 6, 3'-desphenyl-3'-(3,4-methylenedioxyphenyl) taxol] | 53 | 85
COc1ccc([C@H](NC(=O)c2ccccc2)[C@@H](O)C(=O)O[C@H]2C[C@@]3(O)[C@@H](OC(=O)c4ccccc4)[C@@H]4[C@]5(OC(C)=O)CO[C@@H]5C[C@H](O)[C@@]4(C)C(=O)[C@H](OC(C)=O)C(=C2C)C3(C)C)cc1OC [Example 7, 3'-desphenyl-3'-(3,4-dimethoxyphenyl) taxol] | 11 | 26
CC(=O)O[C@H]1C(=O)[C@@]2(C)[C@H]([C@H](OC(=O)c3ccccc3)[C@]3(O)C[C@H](OC(=O)[C@H](O)[C@@H](NC(=O)c4ccccc4)c4ccc([N+](=O)[O-])cc4)C(C)=C1C3(C)C)[C@]1(OC(C)=O)CO[C@@H]1C[C@@H]2O [Example 8, 3'-desphenyl-3'-(4-nitrophenyl) taxol] | 114 | 105
CC(=O)O[C@H]1C(=O)[C@@]2(C)[C@H]([C@H](OC(=O)c3ccccc3)[C@]3(O)C[C@H](OC(=O)[C@H](O)[C@@H](NC(=O)c4ccccc4)c4ccc(F)cc4)C(C)=C1C3(C)C)[C@]1(OC(C)=O)CO[C@@H]1C[C@@H]2O [Example 9, 3'-desphenyl-3'-(4-fluorophenyl) taxol] | 100 | 
CC(=O)O[C@H]1C(=O)[C@@]2(C)[C@H]([C@H](OC(=O)c3ccccc3)[C@]3(O)C[C@H](OC(=O)[C@H](O)[C@@H](NC(=O)c4ccc(Cl)cc4)c4ccccc4)C(C)=C1C3(C)C)[C@]1(OC(C)=O)CO[C@@H]1C[C@@H]2O [Example 10, N-debenzoyl-N-(4-chlorobenzoyl) taxol] | 75 | 90
CC(=O)O[C@H]1C(=O)[C@@]2(C)[C@H]([C@H](OC(=O)c3ccccc3)[C@]3(O)C[C@H](OC(=O)[C@H](O)[C@@H](NC(=O)c4ccc(Br)cc4)c4ccccc4)C(C)=C1C3(C)C)[C@]1(OC(C)=O)CO[C@@H]1C[C@@H]2O [Example 11, N-debenzoyl-N-(4-bromobenzoyl) taxol] | 67 | 88
CC(=O)O[C@H]1C(=O)[C@@]2(C)[C@H]([C@H](OC(=O)c3ccccc3)[C@]3(O)C[C@H](OC(=O)[C@H](O)[C@@H](NC(=O)c4ccc(C)cc4)c4ccccc4)C(C)=C1C3(C)C)[C@]1(OC(C)=O)CO[C@@H]1C[C@@H]2O [Example 12, N-debenzoyl-N-(4-methylbenzoyl) taxol] | 107 | 110
CC(=O)O[C@H]1C(=O)[C@@]2(C)[C@H]([C@H](OC(=O)c3ccccc3)[C@]3(O)C[C@H](OC(=O)[C@H](O)[C@@H](NC(=O)c4ccc(C(C)(C)C)cc4)c4ccccc4)C(C)=C1C3(C)C)[C@]1(OC(C)=O)CO[C@@H]1C[C@@H]2O [Example 13, N-debenzoyl-N-(4-t-butylbenzoyl) taxol] | 67 | 85
COc1ccc(C(=O)N[C@@H](c2ccccc2)[C@@H](O)C(=O)O[C@H]2C[C@@]3(O)[C@@H](OC(=O)c4ccccc4)[C@@H]4[C@]5(OC(C)=O)CO[C@@H]5C[C@H](O)[C@@]4(C)C(=O)[C@H](OC(C)=O)C(=C2C)C3(C)C)cc1 [Example 14, N-debenzoyl-N-(4-methoxybenzoyl) taxol] | 95 | 99
CC(=O)O[C@H]1C(=O)[C@@]2(C)[C@H]([C@H](OC(=O)c3ccccc3)[C@]3(O)C[C@H](OC(=O)[C@H](O)[C@@H](NC(=O)c4ccc(F)cc4)c4ccc(F)cc4)C(C)=C1C3(C)C)[C@]1(OC(C)=O)CO[C@@H]1C[C@@H]2O [Example 15, N-debenzoyl-N-(4-fluorobenzoyl)-3'-desphenyl-3'-(4-fluorophenyl) taxol] | 89 | 98
CC(=O)O[C@H]1C(=O)[C@@]2(C)[C@H]([C@H](OC(=O)c3ccccc3)[C@]3(O)C[C@H](OC(=O)[C@H](O)[C@@H](NC(=O)c4ccc(F)cc4)c4ccccc4)C(C)=C1C3(C)C)[C@]1(OC(C)=O)CO[C@@H]1C[C@@H]2O [Example 16, N-debenzoyl-N-(4-fluorobenzoyl) taxol] | 66 | 90
CC(=O)O[C@H]1C(=O)[C@@]2(C)[C@H]([C@H](OC(=O)c3ccccc3)[C@]3(O)C[C@H](OC(=O)[C@H](O)[C@@H](NC(=O)c4ccc(C)cc4)c4ccc(Cl)cc4)C(C)=C1C3(C)C)[C@]1(OC(C)=O)CO[C@@H]1C[C@@H]2O [Example 17, N-debenzoyl-N-(4-methylbenzoyl)-3'-desphenyl-3'-(4-chlorophenyl) taxol] | 101 | 98
